In ChEMBL document CHEMBL1201862, “PubChem BioAssay data set” (2004):
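Five compound concentrations were applied to cells in 96-well plates for 48 hours; endpoints were derived by simple linear interpolation of the resulting dose-response curve. At the GI50, growth is halved.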 Active and inactive are the calls of the source. No stated cut-off is given here; in the data, active = GI50 up to about 1.1 µM and inactive = higher.

Key:
Assay in all cases: growth of human tumour cells (NCI), 48 h
K562 = system: K562
OVCAR-3 = system: OVCAR-3
UACC-62 = system: UACC-62
SF-295 = system: SF-295
M14 = system: M14
CCRF-CEM = system: CCRF-CEM
SK-MEL-28 = system: SK-MEL-28
HL-60 = system: HL-60
HCT-15 = system: HCT-15
HOP-92 = system: HOP-92
OVCAR-4 = system: OVCAR-4
HT-29 = system: HT-29
HCC 2998 = system: HCC 2998
786-0 = system: 786-0
SK-MEL-2 = system: SK-MEL-2
NCI-H226 = system: NCI-H226
RPMI-8226 = system: RPMI-8226
LOX IMVI = system: LOX IMVI
SK-OV-3 = system: SK-OV-3

Compound | GI50 (K562) | GI50 (OVCAR-3) | GI50 (UACC-62) | GI50 (SF-295) | GI50 (M14) | GI50 (CCRF-CEM) | GI50 (SK-MEL-28) | GI50 (HL-60) | GI50 (HCT-15) [µM] | GI50 (HOP-92) | GI50 (OVCAR-4) | GI50 (HT-29) | GI50 (HCC 2998) | GI50 (786-0) | GI50 (SK-MEL-2) | GI50 (NCI-H226) | GI50 (RPMI-8226) | GI50 (LOX IMVI) | GI50 (SK-OV-3)
O=C1C(=C2CCCC2)CCC1CN1CCCCC1 (stereo not given) | 16.3 µM (inactive) | 16.9 µM (inactive) | 18.5 µM (inactive) | > 100 µM (inactive) | 15.7 µM (inactive) | 14.3 µM (inactive) | 17.5 µM (inactive) | 4.63 µM (inactive) | 16.3 | 19.5 µM (inactive) | 16.5 µM (inactive) | 20.4 µM (inactive) | 16.3 µM (inactive) | 13.6 µM (inactive) | 16.5 µM (inactive) | – | – | – | –
COc1ccc(C(=O)C(C(=O)C(=O)NC2C3CC4CC(C3)CC2C4)c2ccc(OC)cc2)cc1 (stereo not given) | > 100 µM (inactive) | > 100 µM (inactive) | > 100 µM (inactive) | > 100 µM (inactive) | > 100 µM (inactive) | > 100 µM (inactive) | > 100 µM (inactive) | > 100 µM (inactive) | > 100 | > 100 µM (inactive) | > 100 µM (inactive) | > 100 µM (inactive) | > 100 µM (inactive) | > 100 µM (inactive) | > 100 µM (inactive) | > 100 µM (inactive) | > 100 µM (inactive) | > 100 µM (inactive) | > 100 µM (inactive)
CC1=C(C(=O)NCc2ccccc2)C(c2ccco2)C(C(=O)NCc2ccccc2)=C(C)N1 | 30.3 µM (inactive) | > 100 µM (inactive) | 17.3 µM (inactive) | 56.9 µM (inactive) | 57 µM (inactive) | 45.8 µM (inactive) | > 100 µM (inactive) | 17.8 µM (inactive) | 52.8 | 92.9 µM (inactive) | 55.7 µM (inactive) | 53.8 µM (inactive) | 47 µM (inactive) | – | 27.6 µM (inactive) | > 100 µM (inactive) | > 100 µM (inactive) | 77.3 µM (inactive) | > 100 µM (inactive)
CN1C2CCC1/C(=C/c1cccc3c1OCO3)C(=O)/C2=C\c1cccc2c1OCO2 | > 10 µM (inactive) | 87.3 µM (inactive) | 14.3 µM (inactive) | 22.1 µM (inactive) | 59 µM (inactive) | 78 µM (inactive) | > 100 µM (inactive) | > 100 µM (inactive) | > 100 | 22.8 µM (inactive) | – | > 100 µM (inactive) | > 100 µM (inactive) | – | > 100 µM (inactive) | > 100 µM (inactive) | > 100 µM (inactive) | > 100 µM (inactive) | 85.7 µM (inactive)
O=C(CCc1ccccc1)CC1OC(=O)C(Cl)=C1Cl (stereo not given) | 35 µM (inactive) | 20.3 µM (inactive) | 17 µM (inactive) | 27.4 µM (inactive) | 16.5 µM (inactive) | 29.6 µM (inactive) | 16.9 µM (inactive) | – | 16 | 23.9 µM (inactive) | 96.4 µM (inactive) | 19.2 µM (inactive) | 18.6 µM (inactive) | 19.1 µM (inactive) | 19.1 µM (inactive) | – | 32.6 µM (inactive) | 18.6 µM (inactive) | 45.6 µM (inactive)
O=C(CC1Sc2ccccc2NC1=O)Nc1ccc(Cl)cc1 (stereo not given) | > 100 µM (inactive) | > 100 µM (inactive) | 23.9 µM (inactive) | > 100 µM (inactive) | 92.5 µM (inactive) | > 100 µM (inactive) | > 100 µM (inactive) | > 100 µM (inactive) | 75.9 | 19.6 µM (inactive) | 18.2 µM (inactive) | > 100 µM (inactive) | 72.1 µM (inactive) | – | > 100 µM (inactive) | > 100 µM (inactive) | > 100 µM (inactive) | > 100 µM (inactive) | > 100 µM (inactive)
CCOC(=O)C1S/C(=N\c2ccc(Cl)cc2Cl)N=C1C (stereo not given) | > 100 µM (inactive) | 96.6 µM (inactive) | 46.9 µM (inactive) | 32.1 µM (inactive) | 81.8 µM (inactive) | – | > 100 µM (inactive) | 68.4 µM (inactive) | > 100 | 20.6 µM (inactive) | 20.8 µM (inactive) | > 100 µM (inactive) | > 100 µM (inactive) | 53.3 µM (inactive) | 61.5 µM (inactive) | > 100 µM (inactive) | – | 74.5 µM (inactive) | –
C=CC1(C)CCC2=C(CCC3C(C)(C(=O)OC)CCCC23C)C1=O (stereo not given) | 38.8 µM (inactive) | 19.7 µM (inactive) | 18.3 µM (inactive) | 27 µM (inactive) | 20.8 µM (inactive) | 21.4 µM (inactive) | – | 28.7 µM (inactive) | 20.6 | – | 14.7 µM (inactive) | 17 µM (inactive) | – | – | 17.9 µM (inactive) | 23.8 µM (inactive) | 21.7 µM (inactive) | 18.5 µM (inactive) | 18.9 µM (inactive)
Cc1cc(N(CCC#N)CCC#N)ccc1/C=C(\NC(=O)/C=C/c1ccccc1)C(=O)Nc1ccccc1Cl | > 100 µM (inactive) | > 100 µM (inactive) | > 100 µM (inactive) | 92 µM (inactive) | > 100 µM (inactive) | > 100 µM (inactive) | > 100 µM (inactive) | > 100 µM (inactive) | > 100 | 29.2 µM (inactive) | > 100 µM (inactive) | > 100 µM (inactive) | > 100 µM (inactive) | > 100 µM (inactive) | > 100 µM (inactive) | > 100 µM (inactive) | > 100 µM (inactive) | > 100 µM (inactive) | –
CCCNC(C#N)c1ccc(C(C#N)NCCC)cc1 (stereo not given) | 37.8 µM (inactive) | > 100 µM (inactive) | > 100 µM (inactive) | > 100 µM (inactive) | > 100 µM (inactive) | 24.4 µM (inactive) | > 100 µM (inactive) | 40.8 µM (inactive) | > 100 | 45.4 µM (inactive) | > 100 µM (inactive) | > 100 µM (inactive) | > 100 µM (inactive) | > 100 µM (inactive) | > 100 µM (inactive) | > 100 µM (inactive) | – | > 100 µM (inactive) | > 100 µM (inactive)
COC(=O)C1=C(C)N2CCOC2CC1c1ccccc1 (stereo not given) | 70.5 µM (inactive) | 49.5 µM (inactive) | > 100 µM (inactive) | > 100 µM (inactive) | > 100 µM (inactive) | 45.4 µM (inactive) | 99.1 µM (inactive) | 53.5 µM (inactive) | – | 44.7 µM (inactive) | > 100 µM (inactive) | > 100 µM (inactive) | > 100 µM (inactive) | – | > 100 µM (inactive) | > 100 µM (inactive) | 40.4 µM (inactive) | – | –
C/C=C(\C)C(=O)OC1C2C(C)=CC(=O)C(O)C2(C)C2C3(O)OCC24C1OC(=O)C(OC(C)=O)C4C(C)C3O (stereo not given) | 0.0375 µM (active) | 0.0375 µM (active) | 0.0375 µM (active) | 0.0402 µM (active) | – | 0.0375 µM (active) | 0.0375 µM (active) | 0.0375 µM (active) | 0.0741 | 0.0388 µM (active) | 0.11 µM (active) | 0.0385 µM (active) | 0.0415 µM (active) | – | 0.0377 µM (active) | 0.0375 µM (active) | 0.0375 µM (active) | 0.0375 µM (active) | 0.144 µM (active)
N#CC1C(=O)C(=O)N(c2ccccc2)C1=O (stereo not given) | > 100 µM (inactive) | > 100 µM (inactive) | > 100 µM (inactive) | > 100 µM (inactive) | > 100 µM (inactive) | – | > 100 µM (inactive) | – | > 100 | > 100 µM (inactive) | > 100 µM (inactive) | > 100 µM (inactive) | > 100 µM (inactive) | > 100 µM (inactive) | > 100 µM (inactive) | > 100 µM (inactive) | > 100 µM (inactive) | > 100 µM (inactive) | > 100 µM (inactive)
CC1(C)C=CC(=O)C(O)C(C)(C)C1=O (stereo not given) | 30.3 µM (inactive) | 29.1 µM (inactive) | 52.8 µM (inactive) | 75.3 µM (inactive) | > 100 µM (inactive) | 0.13 µM (active) | > 100 µM (inactive) | 27.4 µM (inactive) | 51.2 | 92.7 µM (inactive) | > 100 µM (inactive) | 88.3 µM (inactive) | – | 96.2 µM (inactive) | > 100 µM (inactive) | > 100 µM (inactive) | 21.3 µM (inactive) | 28.7 µM (inactive) | > 100 µM (inactive)
CC(=O)Nc1ccc(C(=O)NN2C(=O)C(Cl)C2c2cccc([N+](=O)[O-])c2)cc1 (stereo not given) | > 100 µM (inactive) | > 100 µM (inactive) | > 100 µM (inactive) | > 100 µM (inactive) | – | > 100 µM (inactive) | > 100 µM (inactive) | > 100 µM (inactive) | – | > 100 µM (inactive) | – | > 100 µM (inactive) | > 100 µM (inactive) | – | > 100 µM (inactive) | > 100 µM (inactive) | > 100 µM (inactive) | – | > 100 µM (inactive)
NC1C(O)C(O)C(CO)OC1n1cc(F)c(=O)[nH]c1=O (stereo not given) | – | – | – | > 100 µM (inactive) | – | > 100 µM (inactive) | > 100 µM (inactive) | > 100 µM (inactive) | > 100 | > 100 µM (inactive) | > 100 µM (inactive) | > 100 µM (inactive) | > 100 µM (inactive) | – | > 100 µM (inactive) | > 100 µM (inactive) | > 100 µM (inactive) | > 100 µM (inactive) | > 100 µM (inactive)
CCOC(=O)CSC(=O)NCCCl | – | > 100 µM (inactive) | > 100 µM (inactive) | > 100 µM (inactive) | > 100 µM (inactive) | – | > 100 µM (inactive) | – | > 100 | > 100 µM (inactive) | > 100 µM (inactive) | > 100 µM (inactive) | > 100 µM (inactive) | > 100 µM (inactive) | > 100 µM (inactive) | > 100 µM (inactive) | – | – | > 100 µM (inactive)
